From patent publication US5298502A, “Method and composition for photodynamic treatment and detection of tumors” (priority 1991, dated 1994)
“Also recorded” adds a separate entry of the source.

Columns and labels:
SMT-F tumor = experiment: Photodynamic treatment of SMT-F tumor in mice fed the agent (Example 10); format: in vivo, female DBA/2 mice
From the text: In this Example preliminary routine dosage experiments, using agent 6c of Example 6, were made, using female DBA/2 mice, four to six weeks old (14-18 grams). For tumor implantation into these animals, SMT-F tumor was aseptically removed from donor animals and cut into 1 mm^3 fragments. These tumor pieces were placed in Hank's Balanced Salt Solution containing penicillin and streptomycin. Tumor pieces were implanted via a torchar into the center of the right flank of shaved mice. […] The skin covering and surrounding the tumor was shaved and depilated two to three hours prior to light treatment.
The light treatment employed red light centered on 630 nm obtained from 1000 watt Xenon arc lamp system (Oriel Corporation) using a condenser which focused the light into a trifurcated fiberoptic bundle. A collimating lens was placed at the end of each fiberoptic in order to focus the image of the fiberoptic bundle on the treatment area: a spot of […] (1.33 cm^2). The design of the fiberoptic bundle ensured uniform distribution of light over this area. The output spectrum of the arc lamp was tuned to a peak intensity of 630 nm (602-670 nm range) using a water filter, a heat reflecting filter, and a 610 nm long pass filter. Light was delivered at a power density of 135 mW/cm^2. The possibility of tissue hyperthermia induced by this power density was evaluated by placing thermocouples at selected depths into the tumor during treatment, and measuring any temperature rise. No increase in tumor temperature greater than 2.4° C. (final temperature of 37.5°C.) was observed. During the light treatment the mice were restrained without anesthesia in specially designed holders and the tumors and surrounding skin were exposed to light to different degrees, from 0 to 600 J/cm^2. […]
In the course of the experiment the porphyrin fluorescence at 650 nm of the tumors (on exposure to fluorescing-inducing light at 630 nm) was measured with a fluorescence photometer.

male Fisher 344 rat = experiment: Proto IX levels in tissues of rat fed agent for 27 days; format: in vivo; details: feed containing 5000 ppm for 27 days
From the text: In another test, a male Fisher 344 rat was fed for 27 days with feed containing 5000 ppm of agent 6c and then sacrificed.
In the foregoing tests of rats and mice the animals were kept on a standard 12 hr. dark-12 hr. light cycle.

[1] = Tolerance of intraperitoneal injection in mice; details: mouse, in vivo, ip, 60% corn oil and 40% DMSO, read-out: tolerated dose
Procedure: c. In tests of the agent injected intraperitoneally in a mixture of 60% corn oil and 40% DMSO it was determined that the mice could tolerate a dose of 100 mg/kg.

HeLa cells = experiment: Proto IX production in HeLa cells, extract of cells alone (Example 7); format: cell-based; details: Homo sapiens, 100 uM agent, first formula (background-subtracted), read-out: increase in the amount of Proto IX relative to the control
Procedure: In a series of experiments along the lines of Examples 1 and 2, cultures of HeLa cells were incubated in the presence of 100 uM of various treating agents, listed below. The percentage given, next to each treating agent, indicates the increase in the amount of Proto IX produced in the presence of that treating agent relative to the amount produced by the control in the same experiment.
As in Examples 1 and 2, the data for this Example 7 were based on measurements of fluorescence (e.g. in counts per second, "cps"). In this Example, however, the measurements were made on an extract of the cells alone (in contrast to Examples 1 and 2 in which the disrupted cells and culture medium together were extracted), the fluorometric medium was the one described in Example 5 (containing 1% Tween-20, 50 mM Tris-HCl, 1 mM EDTA and 1 mM dithioerythritol, pH 8.5), and a cps measurement of the fluorometric medium per se was also made. In calculating the foregoing data for this Example, the following formula was used to calculate the percentage increases: [formula] where Ca is the counts per second for the sample resulting from treatment with the agent, Cc is the counts per second for the control sample, and Cm is the counts per second for the fluorometric medium per se (i.e. the background fluoroescence). On reviewing the data it was observed that Cc -Cm for this set of experiments was […] compared to Cm; for instance, individual measured values were 49025 and 52069 for Cc and 4295 for Cm. […] Accordingly, the data were recalculated using the formula: [formula] with the following results: 6a 336%; 5b 148%; 6c 154%; 6d 510%; 6e 320%; 6f 280%; 6g 329%; 6h 178%; 6i 171%; 6j 185%; 7a 118%; 7b 142%; 7c 103%; 7d 128%; 7e 173%; 7f 118%; 7q 155%; 7h 118%.

chondrosarcoma = experiment: Photodynamic treatment of chondrosarcoma in rats fed the agent (Example 9); format: in vivo, Sprague-Dawley rats
Procedure: Specifically, three Sprague-Dawley rats of average weight 120 g were placed on a diet of feed containing 2000 ppm of the agent for a period of 6 days. On day 3, chondrosarcoma was implanted into the right hind limb of each rat by injecting 0.3 mL of a suspension of the tumor cells (about one million tumor cells). On day 6 the right hind limb of each rat was shaven and depilated, the size of each tumor was measured, and the tumor area and surrounding skin were then exposed to non-thermal doses of 630 nm light for a total of 270 J/cm^2.
In another set of experiments, 20 of the rats were placed on the same diet as above (i.e. feed containing 2000 ppm of agent), provided ad libitum, for 10 days before the treatment with the light, and the injection of the tumor cell suspension was made after the animals had been on the diet for 7 days. Such an injection causes the formation of a tumor having a well defined vascular network within 1 to 2 days. At the time of the treatment with light the tumors had diameters of 5-8 mm and were free of evident necrosis.

[2] = 20 rats, 2000 ppm in feed for 10 days

SMILES: Cc1nn(-c2cc(NS(C)(=O)=O)c(Cl)cc2Cl)c(=O)n1C(F)F [Agent 6c]
- mice with tumors cured (tumor free at 35 days post-treatment) (SMT-F tumor; 4000 ppm in feed for three days, 450 J/cm^2 of light): about 33%
- porphyrin fluorescence of the tumors at 650 nm (SMT-F tumor; agent in feed): All animals showed an increase in tumor fluorescence
- tumor regrowth between 35 and 91 days post-treatment (SMT-F tumor; mouse, in vivo): No tumor regrowth
- Proto IX level in muscle tissue (male Fisher 344 rat): only a small increase
- Proto IX levels in kidney, intestine, stomach and brain (male Fisher 344 rat): marked increases
- Proto IX levels in tissues as compared to a control (male Fisher 344 rat): increased levels of Proto IX as compared to a control
- MTD [1]: 100 mg/kg
- activation at 100 µM (HeLa cells): 297%
- tumors that regrew over time (chondrosarcoma; [2]): ~95%
- tumors with visible regression on the day following the light treatment (chondrosarcoma; [2]): 75%
- effect on surrounding skin and muscle tissue (chondrosarcoma; 2000 ppm in feed for 6 days, 630 nm light 270 J/cm^2): slightly blanched and showed some swelling
- occlusion of blood flow to the treatment area (chondrosarcoma; sodium fluoroscin injection immediately after exposure to light): did not cause apparent occlusion of blood flow
- tumor regression on the day after light treatment (chondrosarcoma; three rats, 2000 ppm in feed for 6 days, 630 nm light 270 J/cm^2): two of the rats were found to be apparently free of their tumors; also recorded: the third rat showed almost complete regression of its tumor
